In patent US20210343946A1, “INFRARED ABSORBERS, INFRARED ABSORBING/BLOCKING FILMS AND PHOTOELECTRIC DEVICES AND ORGANIC SENSORS AND ELECTRONIC DEVICES” (Samsung Electronics Co., Ltd., priority 2020, published 2021):

Key:
[1] = Light absorption characteristics in a solution state (UV-Vis-NIR spectrometer); format: physicochemical; conditions: for λmax (nm) (solution): 1×10^−5 M; for UV-vis: λmax: CH2Cl2 Solution, in synthesis example
Experimental: The compounds according to Synthesis Examples 1 to 5 in dichloromethane, the compounds according to Comparative Synthesis Examples 1 and 2 in toluene, and the compound of Comparative Synthesis Example 3 in chloroform are respectively dissolved at a concentration of 1×10^−5 M to prepare solutions, and light absorption characteristics of the compounds in a solution state are evaluated. The light absorption characteristics are evaluated by using an UV-Vis-NIR spectrometer (UV-3600 Plus, Shimadzu Corp.) to measure a maximum absorption wavelength (λmax).

[2] = Light absorption characteristics in a thin film state (UV-Vis-NIR spectrometer); format: physicochemical; conditions: thin film spin-coated from chloroform on glass substrate
Experimental: In addition, the compounds of Synthesis Examples 1 to 5 are respectively dissolved in chloroform and coated on a glass substrate at 800 rpm for 60 seconds and at 400 rpm for 5 seconds with a spin coater, and the light absorption characteristics thereof in a thin film state are evaluated. The light absorption characteristics are evaluated by measuring a maximum absorption wavelength (λmax) by using a UV-Vis-NIR spectrometer (UV-3600 Plus, Shimadzu Corp.).

| SMILES | λmax (nm) (solution) ([1]; in toluene) | UV-vis: λmax [1] | λmax (nm) (solution) ([1]; in dichloromethane) | λmax (nm) (thin film) [2] |
| --- | --- | --- | --- | --- |
| CCCCCCCCOc1ccc(N(c2ccc(OCCCCCCCC)cc2)c2ccc(-c3ccc(-c4c5c(c(-c6ccc(-c7ccc(N(c8ccc(OCCCCCCCC)cc8)c8ccc(OCCCCCCCC)cc8)cc7)s6)c6nsnc46)N=S=N5)s3)cc2)cc1 [Comparative Synthesis Example 1, reference compound] | 920 nm |  |  |  |
| CCCCCCCCC1(CCCCCCCC)c2ccccc2-c2ccc(-c3ccc(-c4c5c(c(-c6ccc(-c7ccc8c(c7)C(CCCCCCCC)(CCCCCCCC)c7ccccc7-8)s6)c6nsnc46)N=S=N5)s3)cc21 [Comparative Synthesis Example 2, reference compound] | 848 nm |  |  |  |
| CCCCCCOc1cc(-c2c3c(c(-c4cc(OCCCCCC)c(-c5cc6c(s5)c5sc(CCCCCC)cc5n6CCCCCC)s4)c4nsnc24)N=[Se]=N3)sc1-c1cc2c(s1)c1sc(CCCCCC)cc1n2CCCCCC [Synthesis Example 1] |  | 1256 nm | 1256 nm | 1226 nm |
| CCCCCCOc1cc(-c2c3c(c(-c4cc(OCCCCCC)c(-c5cc6c(s5)c5sc(CCCCCC)cc5n6CCCCCC)s4)c4nsnc24)N=S=N3)sc1-c1cc2c(s1)c1sc(CCCCCC)cc1n2CCCCCC [Synthesis Example 2] |  | 1114 nm | 1076 nm | 1120 nm |
| CCCCCCOc1cc(-c2c3nsnc3c(-c3cc(OCCCCCC)c(-c4cc5c(s4)c4sc(CCCCCC)cc4n5CCCCCC)s3)c3nc4c5ncccc5c5cccnc5c4nc23)sc1-c1cc2c(s1)c1sc(CCCCCC)cc1n2CCCCCC [Synthesis Example 3] |  | 1143 nm | 1143 nm | 1166 nm |
| CCCCCCOc1cc(-c2c3nsnc3c(-c3cc(OCCCCCC)c(-c4cc5c(s4)c4sc(CCCCCC)cc4n5CCCCCC)s3)c3nc4c5ccccc5c5ccccc5c4nc23)sc1-c1cc2c(s1)c1sc(CCCCCC)cc1n2CCCCCC [Synthesis Example 4] |  | 1020 nm | 1020 nm | 1058 nm |
| CCCCCCOc1cc(-c2c3c(c(-c4cc(OCCCCCC)c(-c5cc6c(s5)c5sc(CCCCCC)cc5n6CCCCCC)s4)c4n[se]nc24)N=[Se]=N3)sc1-c1cc2c(s1)c1sc(CCCCCC)cc1n2CCCCCC [Synthesis Example 5] |  | 1376 nm | 1376 nm | 1285 nm |
